Data: patent publication US5475132A, “Antifungal agents based on amides containing a phenyl group” (Rhone-Poulenc Agrochimie, priority 1988, dated 1995)
Where two headings read alike, the source gives them in different places.

Test system: Phytophthora citrophthora
Assay: Example B3: action on phytopathogenic soil fungi, growth on agar in Petri dishes
Format: cell-based
Conditions: 120 h, read-out: inhibition of the development of the fungus
[1] = 30 ppm, agar medium, 22° C., 5 days

## COc1ccc(-c2c(C(=O)N3CCOCC3)sc3ccc(I)cc23)cc1OC [Compound 101, 2-(4-morpholinocarbonyl)-5-iodo-3-(3,4-dimethoxyphenyl)benzothiophene]
[1]
  inhibition at 30 ppm: ≥ 80%

## COc1ccc(-c2c(C(=O)N3CCOCC3)sc3ccc(NC(=O)c4ccc(Cl)cc4)cc23)cc1OC [Compound 102, 2-(4-Morpholinocarbonyl)-5-(4-chlorobenzoylamino)-3-(3,4-dimethoxyphenyl)benzothiophene]
[1]
  inhibition at 30 ppm: ≥ 80%

## COc1ccc(-c2c(C(=O)N3CCOCC3)sc3ccc([N+](=O)[O-])cc23)cc1OC [Compound 104, 2-(4-Morpholinocarbonyl)-5-nitro-3-(3,4-dimethoxyphenyl)benzothiophene]
[1]
  inhibition at 30 ppm: ≥ 80%

## C=C(C)c1ccc2sc(C(=O)N3CCOCC3)c(-c3ccc(OC)c(OC)c3)c2c1 [Compound 105, 2-(4-Morpholinocarbonyl)-5-(propen-2-yl)-3-(3,4-dimethoxyphenyl)benzothiophene]
[1]
  inhibition at 30 ppm: ≥ 80%

## CCN(CC)C(=O)c1sc2ccccc2c1-c1ccc(OC)c(OC)c1 [Compound 107, 2-(N,N-Diethylcarboxamide)-3-(3,4-dimethoxyphenyl)benzothiophene]
[1]
  inhibition at 30 ppm: ≥ 80%

## COc1ccc(C2=C(C(=O)N3CCOCC3)C(O)c3ccccc32)cc1OC (stereo not drawn) [Compound 110, 1-(3,4-Dimethoxyphenyl)-2-morpholinocarbonyl-3-hydroxyindene]
[1]
  inhibition at 30 ppm: ≥ 80%

## COc1ccc2c(c1)CC(C(=O)N1CCOCC1)=C2c1ccc(OC)c(OC)c1 [Compound 111, 2-Morpholinocarbonyl-3-(3,,4-dimethoxyphenyl)-6-mehoxyindene]
[1]
  inhibition at 30 ppm: ≥ 80%

## COc1ccc(C2=C(C(=O)N3CCOCC3)Cc3cc(OC)c(OC)cc32)cc1OC [Compound 112, 2-Morpholinocarbonyl-3-(3,4-dimethoxyphenyl)-5,6-methoxyindene]
[1]
  inhibition at 30 ppm: ≥ 80%

## COc1ccc(-c2c(C(=O)N3CCOCC3)sc3ccc(Cl)cc23)cc1OC [Compound 113]
[1]
  inhibition at 30 ppm: ≥ 80%

## COc1ccc(-c2c(C(=O)N3CCOCC3)sc3ccc(Br)cc23)cc1OC [Compound 114]
[1]
  inhibition at 30 ppm: ≥ 80%

## COc1ccc(-c2c(C(=O)N3CCOCC3)sc3ccc(NC(C)=O)cc23)cc1OC [Compound 115]
[1]
  inhibition at 30 ppm: ≥ 80%

## COc1ccc(-c2c(C(=O)N3CCOCC3)sc3ccc(NC(=O)C(F)(F)F)cc23)cc1OC [Compound 116]
[1]
  inhibition at 30 ppm: ≥ 80%

## COc1ccc(-c2c(C(=O)N3CCOCC3)sc3ccc(F)cc23)cc1OC [Compound 117]
[1]
  inhibition at 30 ppm: ≥ 80%

## COc1ccc(-c2c(C(=O)N3CCOCC3)sc3ccccc23)cc1OC [Compound 118]
[1]
  inhibition at 30 ppm: ≥ 80%

## COc1ccc(-c2c(C(=O)N3CCOCC3)sc3c(N)cccc23)cc1OC [Compound 121]
[1]
  inhibition at 30 ppm: ≥ 80%

## COc1ccc(-c2c(C(=O)N3CCOCC3)sc3c(F)cccc23)cc1OC [Compound 122]
[1]
  inhibition at 30 ppm: ≥ 80%

## COc1ccc(-c2c(C(=O)N3CCOCC3)sc3c(Br)cccc23)cc1OC [Compound 123]
[1]
  inhibition at 30 ppm: ≥ 80%

## COc1ccc(-c2c(C(=O)N3CCOCC3)sc3c(Cl)cccc23)cc1OC [Compound 124]
[1]
  inhibition at 30 ppm: ≥ 80%

## COc1ccc(-c2c(C(=O)N3CCOCC3)sc3cc(Cl)ccc23)cc1OC [Compound 125]
[1]
  inhibition at 30 ppm: ≥ 80%

## COc1ccc(-c2c(C(=O)N3CCOCC3)sc3c(-c4ccccc4)cccc23)cc1OC [Compound 126]
[1]
  inhibition at 30 ppm: ≥ 80%

## COc1ccc(-c2c(C(=O)N3CCOCC3)sc3c(C)cccc23)cc1OC [Compound 127]
[1]
  inhibition at 30 ppm: ≥ 80%

## COc1ccc(-c2c(C(=O)N3CCOCC3)sc3cccc(Cl)c23)cc1OC [Compound 128]
[1]
  inhibition at 30 ppm: ≥ 80%

## COc1ccc(-c2c(C(=O)N3CCOCC3)sc3cccc(F)c23)cc1OC [Compound 129]
[1]
  inhibition at 30 ppm: ≥ 80%

## COc1ccc(-c2c(C(=O)N3CCOCC3)sc3c(NC(=O)C(F)(F)F)cccc23)cc1OC [Compound 131]
[1]
  inhibition at 30 ppm: ≥ 80%

## COc1ccc(-c2c(C(=O)N3CCOCC3)sc3c(NC(C)=O)cccc23)cc1OC [Compound 132]
[1]
  inhibition at 30 ppm: ≥ 80%

## COc1ccc(-c2c(C(=O)N3CCOCC3)sc3ccc(C(F)(F)F)cc23)cc1OC [Compound 133]
[1]
  inhibition at 30 ppm: ≥ 80%

## COc1ccc(-c2c(C(=O)N3CCOCC3)sc3ccc(-c4ccsc4)cc23)cc1OC [Compound 134]
[1]
  inhibition at 30 ppm: ≥ 80%

## COc1ccc(-c2c(C(=O)N3CCOCC3)sc3ccc(-c4ccccc4)cc23)cc1OC [Compound 135]
[1]
  inhibition at 30 ppm: ≥ 80%

## COc1ccc(-c2c(C(=O)N3CCOCC3)oc3ccc([N+](=O)[O-])cc23)cc1OC [Compound 136]
[1]
  inhibition at 30 ppm: ≥ 80%

## COc1ccc(-c2c(C(=O)N3CCOCC3)oc3ccccc23)cc1OC [Compound 137]
[1]
  inhibition at 30 ppm: ≥ 80%

## COc1ccc(-c2c(C(=O)N3CCOCC3)n(C)c3ccc([N+](=O)[O-])cc23)cc1OC [Compound 141]
[1]
  inhibition at 30 ppm: ≥ 80%

## COc1ccc(C2=C(C(=O)N3CCOCC3)Cc3cc(OC)c(OC)cc32)cc1 [Compound 149]
[1]
  inhibition at 30 ppm: ≥ 80%

## CCN(C)C(=O)c1sc2ccccc2c1-c1ccc(OC)c(OC)c1 [Compound 150]
[1]
  inhibition at 30 ppm: ≥ 80%

## COc1ccc(-c2c(C(=O)N3CCCCC3)sc3ccccc23)cc1OC [Compound 153]
[1]
  inhibition at 30 ppm: ≥ 80%

## COc1ccc(-c2c(C(=O)N3CCCC3)sc3ccccc23)cc1OC [Compound 154]
[1]
  inhibition at 30 ppm: ≥ 80%

## COc1ccc(-c2c(C(=O)N(C)C)sc3ccccc23)cc1OC [Compound 155]
[1]
  inhibition at 30 ppm: ≥ 80%

## COc1ccc(-c2c(C(=O)N(C)CCO)sc3ccccc23)cc1OC [Compound 156]
[1]
  inhibition at 30 ppm: ≥ 80%

## COc1ccc(-c2c(C(=O)N3CCCCC3CO)sc3ccccc23)cc1OC (stereo not drawn) [Compound 157]
[1]
  inhibition at 30 ppm: ≥ 80%

## COCCN(C)C(=O)c1sc2ccccc2c1-c1ccc(OC)c(OC)c1 [Compound 158]
[1]
  inhibition at 30 ppm: ≥ 80%

## COc1ccc(-c2c(C(=O)N3CCC(=O)CC3)sc3ccccc23)cc1OC [Compound 162]
  inhibition at 30 ppm: ≥ 80%

## COCC1CCCN1C(=O)c1sc2ccccc2c1-c1ccc(OC)c(OC)c1 (stereo not drawn) [Compound 163]
[1]
  inhibition at 30 ppm: ≥ 80%

## COc1ccc(-c2c(C(=O)N3CCCC(O)C3)sc3ccccc23)cc1OC (stereo not drawn) [Compound 164]
[1]
  inhibition at 30 ppm: ≥ 80%

## COc1ccc(-c2c(C(=O)N3CCCC(OC)C3)sc3ccccc23)cc1OC (stereo not drawn) [Compound 166]
[1]
  inhibition at 30 ppm: ≥ 80%

## CCN(C)C(=O)c1sc2ccc(F)cc2c1-c1ccc(OC)c(OC)c1 [Compound 167]
[1]
  inhibition at 30 ppm: ≥ 80%

## COCCN(C)C(=O)c1sc2ccc(F)cc2c1-c1ccc(OC)c(OC)c1 [Compound 169]
[1]
  inhibition at 30 ppm: ≥ 80%

## COc1ccc(-c2cc(-c3ccc(F)cc3)ccc2C(=O)N2CCOCC2)cc1OC [Compound 201, 2-(3,4-Dimethoxyphenyl)-4-(4-fluorophenyl)-1-morpholinocarbonylbenzene]
[1]
  inhibition at 30 ppm: ≥ 80%

## COc1ccc(-c2cc(-c3ccccc3)ccc2C(=O)N2CCOCC2)cc1OC [Compound 202]
[1]
  inhibition at 30 ppm: ≥ 80%

## COc1ccc(-c2cc(-c3ccc(C)cc3)ccc2C(=O)N2CCOCC2)cc1OC [Compound 203]
[1]
  inhibition at 30 ppm: ≥ 80%

## COCCN(C)C(=O)c1ccc(Br)cc1-c1ccc(OC)c(OC)c1 [Compound 204]
[1]
  inhibition at 30 ppm: ≥ 80%

## CCN(CC)C(=O)c1ccc(Br)cc1-c1ccc(OC)c(OC)c1 [Compound 205]
[1]
  inhibition at 30 ppm: ≥ 80%

## CCN(C)C(=O)c1ccc(Br)cc1-c1ccc(OC)c(OC)c1 [Compound 206]
[1]
  inhibition at 30 ppm: ≥ 80%
